The source made the active and inactive calls. No cut-off for these calls is given here.

These results are taken from ChEMBL document CHEMBL5120767, “Phlegmacaritones A and B, a Pair of Serratane-Related Triterpenoid Epimers with an Unprecedented Carbon Skeleton from Phlegmariurus carinatus” (J Nat Prod, 2022).

What all share (assay type): functional, cell-based
The test system of test [1] is ONS. Put plainly: Effect on human ONS cells assessed as increase in mitochondrial intensity at 5 uM after 24 hrs by fluorescence microscopic analysis.
The subject of test [2] is ONS. Kind of test: Effect on human ONS cells assessed as increase in LC3b intensity at 5 uM after 24 hrs by fluorescence microscopic analysis.
The subject of test [3] is ONS. Put plainly: Effect on human ONS cells assessed as decrease in EEA1-marked early endosomes at 5 uM after 24 hrs by fluorescence microscopic analysis.
Test [4] relates to ONS. Put plainly: Effect on human ONS cells assessed as decrease in alpha-tubulin intensity at 5 uM after 24 hrs by fluorescence microscopic analysis.
Test [5] has as its system ONS. Put plainly: Induction of phenotypical changes in human ONS cells at 5 uM after 24 hrs.
Test [6] concerns ONS. Kind of test: Effect on human ONS cells assessed as increase in EEA1-marked early endosomes at 5 uM after 24 hrs by fluorescence microscopic analysis.
For test [7], the system named is ONS. Put plainly: Effect on human ONS cells assessed as increase in alpha-tubulin intensity at 5 uM after 24 hrs by fluorescence microscopic analysis.

Turning to `CC1(C)[C@H](O)CC[C@]2(C)[C@H]3CC[C@H]4[C@@](C)(CC[C@@H]5[C@]4(C)CC[C@@H](O)[C@]5(C)C(=O)O)C[C@@H]3C(=O)C[C@@H]12`, the result in the test with ONS [1], with ONS [2], in the test with ONS [3], with ONS [4] and in the test on ONS [5] was Active.
For `C[C@@]12CC[C@@H]3[C@](C)(CC[C@@H](O)[C@]3(C)C(=O)O)[C@H]1CC[C@H]1[C@H](C2)C(=O)C[C@H]2[C@](C)(CO)[C@@H](O)CC[C@@]21C`, the outcome with ONS [6] was Active.
For `C=C1C=C2C[C@]3(C)CC[C@@H]4[C@](C)(CC[C@@H](O)[C@]4(C)CO)[C@H]3CC[C@@H]2[C@@]2(C)CC[C@@H](O)C(C)(C)[C@H]12`, the outcome in the test with ONS [7], in the test on ONS [1], in the test with ONS [2] and in the test on ONS [3] was Active.
On to `C=C1C=C2C[C@]3(C)CC[C@@H]4[C@](C)(CC[C@@H](O)[C@]4(C)CO)[C@H]3CC[C@@H]2[C@@]2(C)CC[C@@H](O)[C@@](C)(CO)[C@]12C`, for which, in the test with ONS [6], the result was Active.
On to `CC1(C)[C@@H](O)CC[C@]2(C)[C@H]3CC[C@H]4[C@@](C)(CC[C@@H]5[C@]4(C)CC[C@H](OC(=O)CCc4ccc(O)c(O)c4)[C@]5(C)CO)CC3CC[C@@H]12` (stereo not given in full), for which, in the test on ONS [6], the outcome was Active.
The same measure, in the same setting: next, `CC1(C)[C@H](O)CC[C@]2(C)[C@H]3CC[C@H]4[C@@](C)(CC[C@@H]5[C@]4(C)CC[C@@H](O)[C@]5(C)CO)CC3=CC(=O)[C@@]12C`: “Active”.
For `C=C1C=C2C[C@]3(C)CC[C@@H]4[C@](C)(CC[C@@H](O)[C@]4(C)C(=O)O)[C@H]3CC[C@@H]2[C@@]2(C)CC[C@@H](O)C(C)(C)[C@H]12`, the result in the test with ONS [7], in the test with ONS [1], with ONS [2] and in the test on ONS [3] was Active.
In the case of `CC1(C)[C@@H](OC(=O)CCc2ccc(O)c(O)c2)CC[C@@]2(C)[C@H]1CC[C@@]1(C)CC3CC[C@@H]4[C@](C)(CC[C@@H](O)[C@]4(C)CO)[C@H]3CC[C@@H]12` (stereo not given in full), the result with ONS [7], in the test on ONS [1], with ONS [2] and in the test on ONS [3] was Active.
Turning to `C=C1C=C2C[C@]3(C)CC[C@H]4C(C)(C)[C@H](O)CC[C@]4(C)[C@H]3CC[C@@H]2[C@@]2(C)CC[C@@H](O)C(C)(C)[C@H]12`, the result in the test with ONS [7], in the test on ONS [1], in the test with ONS [2] and with ONS [3] was Active.
Turning to `C[C@@]12CC[C@@H]3[C@](C)(CC[C@@H](O)[C@]3(C)C(=O)O)[C@H]1CC[C@H]([C@@]1(C)CC[C@@H](O)[C@@]3(C)COC(=O)C[C@@H]31)C(=O)C2`, the result in the test with ONS [6] was Active.
For `C[C@H]1CC(=O)[C@]23CCCN4CCC[C@]2(C4)C(=O)C[C@@H]3[C@H]1O`, the result with ONS [5] was Active.
Consider `C=C1C=C2C[C@]3(C)CC[C@H]4C(C)(C)[C@@H](O)CC[C@]4(C)[C@H]3CC[C@@H]2[C@@]2(C)CC[C@@H](O)[C@](C)(CO)[C@H]12`, for which the result in the test on ONS [7], with ONS [1], in the test on ONS [2], in the test on ONS [3] and in the test on ONS [5] was Active.
Regarding `CC1(C)[C@@H](OC(=O)CCc2ccc(O)c(O)c2)CC[C@@]2(C)[C@H]1CC[C@@]1(C)CC3CC[C@H]4C(C)(C)[C@@H](O)CC[C@]4(C)[C@H]3CC[C@@H]12` (stereo not given in full), the result with ONS [7], with ONS [1], with ONS [2] and in the test with ONS [3] was Active.
In the case of `CC1(C)[C@H](O)CC[C@]2(C)[C@H]3CC[C@H]4[C@@](C)(CC[C@@H]5[C@]4(C)CC[C@@H](O)[C@]5(C)C(=O)O)C[C@H]3C(=O)C[C@@H]12`, the outcome in the test with ONS [7], with ONS [1], in the test on ONS [2] and in the test on ONS [3] was Active.
Regarding `CC1(C)[C@@H](O)CC[C@]2(C)[C@H]3CC[C@H]4[C@@](C)(CC[C@@H]5[C@]4(C)CC[C@H](O)[C@]5(C)COC(=O)CCc4ccc(O)c(O)c4)CC3=CC[C@@H]12`, the outcome with ONS [7], in the test on ONS [1], in the test with ONS [2] and in the test on ONS [3] was Active.
Take `C=C1C=C2C[C@]3(C)CC[C@@H]4[C@](C)(CC[C@@H](O)[C@]4(C)CO)[C@H]3CC[C@@H]2[C@@]2(C)CC[C@@H](O)[C@](C)(CO)[C@H]12`: the result in the test on ONS [6] was Active.
